According to patent US6844333B1, “Method of treating atherosclerosis” (The Trustees of the University of Pennsylvania, priority 1999, dated 2005):

Legend:
[1] = tested on: aortic atherosclerotic plaque in hypercholesterolemic rabbits; test: Histomorphometric analysis of aortic plaque load (I/M); assay type: in vivo, Male New Zealand White rabbits; conditions: for aortic plaque load vs controls after controlling for changes in serum C and T levels (multiple regression): estriol 1 mg/kg (P=0.052), haloperidol 1/10/5 mg/kg (P=0.069); for (I/M)/(I/M)CG: relative to control group, estriol 1 mg/kg, haloperidol 1/10/5 mg/kg s.c. daily
Protocol: Five-micron, serial histologic sections (15 each) of 27 ascending aortas were cut from paraffin blocks, stained with hematoxylin and eosin (H&E) and were studied by light microscopy. Images of tissue sections were captured to a Power Macintosh 7300/200 computer by a Hitachi 3-CCD Color Camera (model HV-C20) attached to a Nikon Eclipse E600 microscope. With digital imaging (IPLap Spectrum, Signal Analytics Corporation, Vienna, Va.), they were then analyzed by manual color segmentation by tracting the endothelial surface (intima), internal elastic lamina, and external elastic lamina of each vessel. From segmented images, intimal and medial areas were computed, allowing calculation of intima to media ratios. Plaque load for each aorta was defined as the ratio of intimal area to medial area (I/M).
(§1) Serum lipid levels and I/M were expressed as the mean+SEM for all animals. The changes in lipid levels before and after the treatment period were compared using paired t-tests. The differences between the treatment groups and controls were compared using analysis of variance (ANOVA) techniques. Repeated Measures ANOVA was used to compare the difference in plaque loads among the five groups. Multiple regression models were used to compare the differences in plaque loads between the four treatment groups and the control group, adjusting for the difference in cholesterol and triglyceride levels. P<0.05 was considered statistically significant.

[2] = Tolerability / survival during 12-week treatment; conditions: E: after 18 days; H: at 39 and 71 days, failure to thrive; n=6 per group
Protocol: Male New Zealand White rabbits (3.2-4.9 pounds each) were fed a 0.5% cholesterol chow diet for 12 weeks and randomly assigned to five groups (n=6 each); one control group (CG) and four groups treated with estriol (E), haloperidol (H), low-dose 17-hydroxyprogesterone (LDP), or high-dose 17-hydroxyprogesterone (HDP). Serum cholesterol (C) and triglyceride (T) were measured before and after the treatment period in all groups; serum progesterone was determined only in the LDP and HDP groups. After the treatment period, rabbits were euthanized for histomorphometric analysis of aortic plaque load. The rabbits were treated according to the Animal Welfare Act specifications.
Vehicle only (CG) and vehicle plus steroid (treated groups) were administered daily subcutaneously. Steroid doses were as follows: estriol, 1 mg/kg; haloperidol, 1 mg/kg for 2 weeks, 10 mg/kg for 2 weeks, and 5 mg/kg for 8 weeks; low-dose 17-hydroxyprogesterone, 10 mg/kg; high-dose 17-hydroxyprogesterone, 90 mg/kg.
After 91-100 days of treatment, twenty-seven rabbits were euthanized for histomorphometric analysis of aortic plaque load.

[3] = Quantitative serum lipid analysis (cholesterol, triglyceride) in cholesterol-fed rabbits; assay type: in vivo, Male New Zealand White rabbits; conditions: change relative to control group; estriol 1 mg/kg; haloperidol 1/10/5 mg/kg s.c. daily
Excerpt: as §1

[4] = tested on: aortic atherosclerosis in hypercholesterolemic rabbits; test: Gross examination of the aortas (occlusion); assay type: in vivo, Male New Zealand White rabbits; conditions: treated animals vs control
Excerpt: With the control animals, there was about 42% occlusion. With the low dose progesterone there was 6% occlusion and with the high dose progesterone there was 0% occlusion evident.

[5] = tested on: human monocytes; test: Inhibition of human monocyte/macrophage Fcγ receptor mediated phagocytosis; assay type: cell-based; conditions: 90 min at 37° C.; for % Phagocytic Cells (percent of monocytes/macrophages phagocytosing IgG sensitized cells): buffer control 42%; for PI (phagocytic index, ingested IgG-sensitized cells per 100 monocytes): buffer control 105
Protocol: The agents to be tested (haloperidol, SCH-23390 and sulpiride) were incubated with human monocytes isolated using lymphocyte separation medium. Incubation was for 90 min at 37° C. Buffer (PBS) treated cells served as a control. At the end of the incubation period, monocytes were exposed to IgG-sensitized cells in accordance with the phagocytic assay of Indik et al, Blood 86:4389 (1995).

[6] = rabbit, in vivo

Structure (SMILES)	aortic plaque load vs controls after controlling for changes in serum C and T levels (multiple regression) [1]	(I/M)/(I/M)CG [1]	rabbits that died or were sacrificed during treatment [2]	Cholesterol Δ/ΔCG [3]	Triglyceride Δ/ΔCG [3]	atherosclerosis on gross examination of the aortas (in words) [4]	% Phagocytic Cells (percent of monocytes/macrophages phagocytosing IgG sensitized cells) ([5]; 50 μM PBS/methanol)	PI (phagocytic index, ingested IgG-sensitized cells per 100 monocytes) ([5]; 50 μM PBS/methanol)	tolerance of dose by rabbits [6]	% Phagocytic Cells (percent of monocytes/macrophages phagocytosing IgG sensitized cells) ([5]; 500 μg/ml PBS/methanol)	PI (phagocytic index, ingested IgG-sensitized cells per 100 monocytes) ([5]; 500 μg/ml PBS/methanol)
C[C@]12CC[C@@H]3c4ccc(O)cc4CC[C@H]3[C@@H]1C[C@@H](O)[C@@H]2O [E, estriol]	lower	0.02	One rabbit in the E group died	0.71	−0.03	decreased atherosclerosis					
O=C(CCCN1CCC(O)(c2ccc(Cl)cc2)CC1)c1ccc(F)cc1 [Haloperidol, haloperidol]	lower	0.29	two rabbits in he H group were sacrificed	0.86	0.81		0%	0	poor tolerance		
CCN1CCCC1CNC(=O)c1cc(S(N)(=O)=O)ccc1OC (stereo not drawn) [Sulpiride, sulpiride]										59%	232
CN1CCc2cc(Cl)c(O)cc2[C@@H](c2ccccc2)C1 [SCH-23390]							16%	38			
